Assay results from patent publication US20090118274A1, “MONOCYCLIC AMINOPROPYL TETRAHYDRO-PYRAZOLO-PYRIDINE MODULATORS OF CATHEPSIN S” (priority 2007, published 2009).
pIC50: −log10 of the molar value.

Molecular target: T1, Recombinant human cathepsin S (CatS) (Homo sapiens, UniProt P25774)
T1 construct: made in house
Experiment: Recombinant human cathepsin S (CatS) fluorogenic substrate inhibition assay
Format: biochemical
Settings: not given
Procedure: Recombinant human cathepsin S (CatS) was expressed in the baculovirus system and purified in one step with a thiopropyl-sepharose column. […] The assay is run in 150 mM sodium acetate pH 5.0 containing 1.5 mM DTT and 150 mM NaCl. […] Measurements are taken every min for 20 min. The rate is calculated from the slope of the increase in fluorescence and the percent inhibition is calculated from this.

T1 sequence (P25774 115-331): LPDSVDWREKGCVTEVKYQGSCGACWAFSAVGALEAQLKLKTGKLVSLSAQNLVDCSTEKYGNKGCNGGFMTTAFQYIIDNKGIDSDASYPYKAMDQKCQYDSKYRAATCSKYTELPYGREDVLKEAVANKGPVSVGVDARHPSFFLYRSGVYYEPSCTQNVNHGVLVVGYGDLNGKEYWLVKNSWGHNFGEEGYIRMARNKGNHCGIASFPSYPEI

| Compound | pIC50 |
| --- | --- |
| CS(=O)(=O)N1CCc2c(c(-c3ccc(C(F)(F)F)c(CNC(=O)Oc4ccc(F)cc4)c3)nn2CC(O)CN2CCCC2)C1 (stereo not drawn) [Example 213, {5-[1-(2-Hydroxy-3-pyrrolidin-1-yl-propyl)-5-methanesulfonyl-4,5,6,7-tetrahydro-1H-pyrazolo[4,3-c]pyridin-3-yl]-2-trifluoromethyl-benzyl}-carbamic acid 4-fluoro-phenyl ester] | 6.25 |

Same assay, conditions: average of results obtained; substrate Z-Valine-Valine-Arginine-AMC 10 μM, pH 5.0; read-out: CatS IC50

| Compound | pIC50 |
| --- | --- |
| CNC(=O)NC1CCN(CC(O)Cn2nc(-c3ccc(Cl)c(CNC(=O)c4ccc(F)cc4)c3)c3c2CCN(S(C)(=O)=O)C3)CC1 (stereo not drawn) [Example 77, N-[2-Chloro-5-(1-{2-hydroxy-3-[4-(3-methyl-ureido)-piperidin-1-yl]-propyl}-5-methanesulfonyl-4,5,6,7-tetrahydro-1H-pyrazolo[4,3-c]pyridin-3-yl)-benzyl]-4-fluoro-benzamide] | 7.52 |
| CS(=O)(=O)N1CCc2c(c(-c3ccc(Cl)c(COC(=O)c4ccccc4)c3)nn2CCCN2CCCC2)C1 [Example 70, Benzoic acid 2-chloro-5-[5-methanesulfonyl-1-(3-pyrrolidin-1-yl-propyl)-4,5,6,7-tetrahydro-1H-pyrazolo[4,3-c]pyridin-3-yl]-benzyl ester] | 5.73 |
| CS(=O)(=O)N1CCc2c(c(-c3ccc(C(F)(F)F)c(CNC(=O)c4ccc(F)cc4)c3)nn2CCCN2CCC3(CCNC3=O)CC2)C1 [Example 41, 4-Fluoro-N-(5-{5-methanesulfonyl-1-[3-(1-oxo-2,8-diaza-spiro[4.5]dec-8-yl)-propyl]-4,5,6,7-tetrahydro-1H-pyrazolo[4,3-c]pyridin-3-yl}-2-trifluoromethyl-benzyl)-benzamide] | 7.40 |
| CS(=O)(=O)N1CCc2c(c(-c3ccc(Cl)c(CNC(=O)c4ccc(F)cc4)c3)nn2CC(O)CN2CCC(N)CC2)C1 (stereo not drawn) [Example 83, N-(5-{1-[3-(4-Amino-piperidin-1-yl)-2-hydroxy-propyl]-5-methanesulfonyl-4,5,6,7-tetrahydro-1H-pyrazolo[4,3-c]pyridin-3-yl}-2-chloro-benzyl)-4-fluoro-benzamide] | 6.57 |
| CN(C)C1CCN(CC(O)Cn2nc(-c3ccc(Cl)c(CNC(=O)c4ccc(F)cc4)c3)c3c2CCN(S(C)(=O)=O)C3)CC1 (stereo not drawn) [Example 85, N-(2-Chloro-5-{1-[3-(4-dimethylamino-piperidin-1-yl)-2-hydroxy-propyl]-5-methanesulfonyl-4,5,6,7-tetrahydro-1H-pyrazolo[4,3-c]pyridin-3-yl}-benzyl)-4-fluoro-benzamide] | 6.35 |
| CS(=O)(=O)N1CCc2c(c(-c3ccc(C(F)(F)F)c(CNC(=O)c4ccc(F)cc4)c3)nn2CC(O)CN2CCC[C@H]2C(N)=O)C1 (stereo partly drawn) [Example 97, (S)-1-[3-(3-{3-[(4-Fluoro-benzoylamino)-methyl]-4-trifluoromethyl-phenyl}-5-methanesulfonyl-4,5,6,7-tetrahydro-pyrazolo[4,3-c]pyridin-1-yl)-2-hydroxy-propyl]-pyrrolidine-2-carboxylic acid amide] | 6.62 |
| CS(=O)(=O)N1CCc2c(c(-c3ccc(Cl)c(CCC(=O)Nc4ccccc4)c3)nn2CCCN2CCOCC2)C1 [Example 292, 3-{2-Chloro-5-[5-methanesulfonyl-1-(3-morpholin-4-yl-propyl)-4,5,6,7-tetrahydro-1H-pyrazolo[4,3-c]pyridin-3-yl]-phenyl}-N-phenyl-propionamide] | 5.59 |
| CS(=O)(=O)N1CCc2c(c(-c3ccc(C(F)(F)F)c(CNC(=O)CN4CCOCC4)c3)nn2CCCN2CCC(N3CCCC3=O)CC2)C1 [Example 39, N-[5-(5-Methanesulfonyl-1-{3-[4-(2-oxo-pyrrolidin-1-yl)-piperidin-1-yl]-propyl}-4,5,6,7-tetrahydro-1H-pyrazolo[4,3-c]pyridin-3-yl)-2-trifluoromethyl-benzyl]-2-morpholin-4-yl-acetamide] | 6.36 |
| CS(=O)(=O)N1CCc2c(c(-c3ccc(Cl)c(CNC(=O)/C=C/c4ccccc4)c3)nn2CCCN2CCCC2)C1 [Example 219, N-{2-Chloro-5-[5-methanesulfonyl-1-(3-pyrrolidin-1-yl-propyl)-4,5,6,7-tetrahydro-1H-pyrazolo[4,3-c]pyridin-3-yl]-benzyl}-3-phenyl-acrylamide] | 6.19 |
| CC(=O)NC1CCN(CC(O)Cn2nc(-c3ccc(Cl)c(CNC(=O)c4ccc(F)cc4)c3)c3c2CCN(S(C)(=O)=O)C3)CC1 (stereo not drawn) [Example 13, N-(5-{1-[3-(4-Acetylamino-piperidin-1-yl)-2-hydroxy-propyl]-5-methanesulfonyl-4,5,6,7-tetrahydro-1H-pyrazolo[4,3-c]pyridin-3-yl}-2-chloro-benzyl)-4-fluoro-benzamide] | 7.40 |
| CS(=O)(=O)N1CCc2c(c(-c3ccc(Cl)c(CNC(=O)c4ccncc4)c3)nn2CCCN2CCCC2)C1 [Example 235, N-{2-Chloro-5-[5-methanesulfonyl-1-(3-pyrrolidin-1-yl-propyl)-4,5,6,7-tetrahydro-1H-pyrazolo[4,3-c]pyridin-3-yl]-benzyl}-isonicotinamide] | 6.05 |
| CS(=O)(=O)N1CCc2c(c(-c3ccc(Cl)c(CNC(=O)c4ccc(F)cc4)c3)nn2CC(O)CN2CCC(F)(F)CC2)C1 (stereo not drawn) [Example 10, N-(2-Chloro-5-{1-[3-(4,4-difluoro-piperidin-1-yl)-2-hydroxy-propyl]-5-methanesulfonyl-4,5,6,7-tetrahydro-1H-pyrazolo[4,3-c]pyridin-3-yl}-benzyl)-4-fluoro-benzamide] | 7.05 |

Continued, values first:

| pIC50 | Compound |
| --- | --- |
| 6.26 | CS(=O)(=O)N1CCc2c(c(-c3ccc(C(F)(F)F)c(CNC(=O)c4ccc(F)cc4)c3)nn2CC(O)CN2CCS(=O)(=O)CC2)C1 (stereo not drawn) [Example 169, N-(5-{1-[3-(1,1-Dioxo-1λ^6-thiomorpholin-4-yl)-2-hydroxy-propyl]-5-methanesulfonyl-4,5,6,7-tetrahydro-1H-pyrazolo[4,3-c]pyridin-3-yl}-2-trifluoromethyl-benzyl)-4-fluoro-benzamide] |
| 6.80 | CC(C)CC(=O)NCc1cc(-c2nn(CC(O)CN3CCC(NS(C)(=O)=O)CC3)c3c2CN(S(C)(=O)=O)CC3)ccc1C(F)(F)F (stereo not drawn) [Example 255, N-(5-{1-[2-Hydroxy-3-(4-methanesulfonylamino-piperidin-1-yl)-propyl]-5-methanesulfonyl-4,5,6,7-tetrahydro-1H-pyrazolo[4,3-c]pyridin-3-yl}-2-trifluoromethyl-benzyl)-3-methyl-butyramide] |
| 6.30 | CS(=O)(=O)N1CCc2c(c(-c3ccc(C(F)(F)F)c(CNC(=O)C4CCCCC4)c3)nn2CC(O)CN2CCCC2)C1 (stereo not drawn) [Example 168, Cyclohexanecarboxylic acid 5-[1-(2-hydroxy-3-pyrrolidin-1-yl-propyl)-5-methanesulfonyl-4,5,6,7-tetrahydro-1H-pyrazolo[4,3-c]pyridin-3-yl}-2-trifluoromethyl-benzylamide] |
| 5.51 | COC1CCC(C(=O)NCc2cc(-c3nn(CC(O)CN4CCCC4)c4c3CN(S(C)(=O)=O)CC4)ccc2C(F)(F)F)CC1 (stereo not drawn) [Example 186, 4-Methoxy-cyclohexanecarboxylic acid 5-[1-(2-hydroxy-3-pyrrolidin-1-yl-propyl)-5-methanesulfonyl-4,5,6,7-tetrahydro-1H-pyrazolo[4,3-c]pyridin-3-yl]-2-trifluoromethyl-benzylamide] |
| 7.30 | CS(=O)(=O)N1CCc2c(c(-c3ccc(C(F)(F)F)c(CNC(=O)c4ccc(O)cc4)c3)nn2CC(O)CN2CCC3(CCNC3=O)CC2)C1 (stereo not drawn) [Example 141, 4-Hydroxy-N-(5-{1-[2-hydroxy-3-(1-oxo-2,8-diaza-spiro[4.5]dec-8-yl)-propyl]-5-methanesulfonyl-4,5,6,7-tetrahydro-1H-pyrazolo[4,3-c]pyridin-3-yl}-2-trifluoromethyl-benzyl)-benzamide] |
| 6.42 | CC(=O)NC1CCN(CC(O)Cn2nc(-c3ccc(C(F)(F)F)c(CNC(=O)CC(C)C)c3)c3c2CCN(S(C)(=O)=O)C3)C1 (stereo not drawn) [Example 278, N-(5-{1-[3-(3-Acetylamino-pyrrolidin-1-yl)-2-hydroxy-propyl]-5-methanesulfonyl-4,5,6,7-tetrahydro-1H-pyrazolo[4,3-c]pyridin-3-yl}-2-trifluoromethyl-benzyl)-3-methyl-butyramide] |
| 7.30 | CC(C)CC(=O)NCc1cc(-c2nn(CC(O)CN3CCC(NC(=O)OC(C)(C)C)CC3)c3c2CN(S(C)(=O)=O)CC3)ccc1C(F)(F)F (stereo not drawn) [Example 244] |
| 6.54 | CS(=O)(=O)N1CCc2c(c(-c3ccc(C(F)(F)F)c(CNC(=O)c4cccc(C#N)c4)c3)nn2CC(O)CN2CCCC2)C1 (stereo not drawn) [Example 159, 3-Cyano-N-{5-[1-(2-hydroxy-3-pyrrolidin-1-yl-propyl)-5-methanesulfonyl-4,5,6,7-tetrahydro-1H-pyrazolo[4,3-c]pyridin-3-yl]-2-trifluoromethyl-benzyl}-benzamide] |
| 6.49 | CS(=O)(=O)N1CCc2c(c(-c3ccc(C(F)(F)F)c(CNC(=O)C4CCCCCC4)c3)nn2CC(O)CN2CCCC2)C1 (stereo not drawn) [Example 160, Cycloheptanecarboxylic acid 5-[1-(2-hydroxy-3-pyrrolidin-1-yl-propyl)-5-methanesulfonyl-4,5,6,7-tetrahydro-1H-pyrazolo[4,3-c]pyridin-3-yl]-2-trifluoromethyl-benzylamide] |
| 6.64 | CS(=O)(=O)N1CCc2c(c(-c3ccc(C(F)(F)F)c(CNC(=O)c4ccc(F)cc4)c3)nn2CC(O)CN2CC[C@@H](CO)C2)C1 (stereo partly drawn) [Example 95, (R)-4-Fluoro-N-(5-{1-[2-hydroxy-3-(3-hydroxymethyl-pyrrolidin-1-yl)-propyl]-5-methanesulfonyl-4,5,6,7-tetrahydro-1H-pyrazolo[4,3-c]pyridin-3-yl}-2-trifluoromethyl-benzyl)-benzamide] |
| 6.21 | CS(=O)(=O)N1CCc2c(c(-c3ccc(C(F)(F)F)c(CNC(=O)c4cc(Cl)cc(Cl)c4)c3)nn2CC(O)CN2CCCC2)C1 (stereo not drawn) [Example 218, 3,5-Dichloro-N-{5-[1-(2-hydroxy-3-pyrrolidin-1-yl-propyl)-5-methanesulfonyl-4,5,6,7-tetrahydro-1H-pyrazolo[4,3-c]pyridin-3-yl]-2-trifluoromethyl-benzyl}-benzamide] |
